One may read the DC50 as the concentration giving 50% degradation.

Among the data in patent publication US20240336612A1, “BRM Targeting Compounds And Associated Methods Of Use” (Prelude Therapeutics Incorporated, priority 2021, published 2024) are DC50 and Dmax values, retold here.

The target in assay [1] is T1, SMARCA2 (Homo sapiens, UniProt P51531).
T1 construct: SMARCA2-HiBiT knock-in Hela monoclonal cell (CS302366); host or cells: HeLa (HiBiT knock-in monoclonal line)
In words: SMARCA2 HiBiT degradation assay in HeLa cells. Format: cell-based. As to conditions: 18 hours incubation; for DC50: read-out: DC50 (SM2-HeLa), SMARCA2 degradation potency; for Dmax: read-out: Dmax % (SM2-HeLa), maximum SMARCA2 degradation within the concentrations tested. The procedure: (§1) SMARCA2 HiBiT and SMARCA4 HiBiT Degradation Assay (cellular)
(§2) Preparation of SMARCA2/4-HiBiT Knock-In Cells
(§3) SMARCA2-HiBiT knock-in Hela monoclonal cell (CS302366) and SMARCA4-HiBiT knock-in Hela monoclonal cell (CS3023226) were purchased from Promega. The heterozygous HiBiT-knock-in was confirmed by sanger sequence in both SMARCA2-HiBiT and SMARCA4-HiBiT monoclonal cells.
(§4) SMARCA2 HiBiT and SMARCA4 HiBiT Degradation Assay in HeLa Cells
(§5) Dispense 10 μL aliquot of prepared Hela-SMARCA2-HiBiT or Hela-SMARCA4-HiBiT cells (1:1 ratio of cells:Trypan Blue (#1450013, Bio-Rad)) onto cell counting slide (#145-0011, Bio-Rad) and obtain cell density and cell viability using cell counter (TC20, Bio-Rad). Remove appropriate volume of resuspended cells from culture flask to accommodate 2500 cells/well @ 20 μL/well. Transfer Hela-HiBiT cells to 50 ml conical (#430290, Corning). Spin down at 1000 rpm for 5 min using tabletop centrifuge (SPINCHRON 15, Beckman). Discard supernatant and resuspend cell pellet in modified EMEM (#30-2003, ATCC) cell culture media containing 10% FBS (F2422-500ML, Sigma), and 1× Penicillin/Streptomycin (200 g/l) (30-002-CI, Corning) to a cell density of 125,000 cells/ml. Dispense 20 μL of resuspended Hela-HiBit cells per well in 384-well TC treated plate (#12-565-343, Thermo Scientific) using standard cassette (#50950372, Thermo Scientific) on Multidrop Combi (#5840310, Thermo Scientific) inside laminar flow cabinet. Dispense test compounds onto plates using digital liquid dispenser (D300E, Tecan). Incubate plates in humidified tissue culture incubator @37° C. for 18 hours. Add 20 ul of prepared Nano-Glo® HiBiT Lytic detection buffer (N3050, Promega) to each well of 384-well plate using small tube cassette (#24073295, Thermo Scientific) on Multidrop Combi, incubate @ RT for 30-60 min. Read plates on microplate reader (Envision 2105, PerkinElmer) using 384 well Ultra-Sensitive luminescence mode. Raw data files and compound information reports are swept into centralized data lake and deconvoluted using automated scripts designed by TetraScience, Inc. Data analysis, curve-fitting and reporting done in Dotmatics Informatics Suite using Screening Ultra module.
(§6) The results are shown below in Table 4 for the HiBiT assay. In Table 4, the DC50/Dmax% (SM2-HeLa) refers to SMARCA2 degradation potency/maximum SMARCA2 degradation within the concentrations tested in HeLa HiBiT assay. In Table 4, the DC50/Dmax% (SM4-HeLa) refers to SMARCA4 degradation potency/maximum SMARCA4 degradation within the concentrations tested in HeLa HiBiT assay.

Assay [2] deals with T2, SMARCA4 (Homo sapiens, UniProt P51532).
T2 construct: SMARCA4-HiBiT knock-in Hela monoclonal cell (CS3023226); host or cells: HeLa (HiBiT knock-in monoclonal line)
T2 sequence (P51532 whole entry): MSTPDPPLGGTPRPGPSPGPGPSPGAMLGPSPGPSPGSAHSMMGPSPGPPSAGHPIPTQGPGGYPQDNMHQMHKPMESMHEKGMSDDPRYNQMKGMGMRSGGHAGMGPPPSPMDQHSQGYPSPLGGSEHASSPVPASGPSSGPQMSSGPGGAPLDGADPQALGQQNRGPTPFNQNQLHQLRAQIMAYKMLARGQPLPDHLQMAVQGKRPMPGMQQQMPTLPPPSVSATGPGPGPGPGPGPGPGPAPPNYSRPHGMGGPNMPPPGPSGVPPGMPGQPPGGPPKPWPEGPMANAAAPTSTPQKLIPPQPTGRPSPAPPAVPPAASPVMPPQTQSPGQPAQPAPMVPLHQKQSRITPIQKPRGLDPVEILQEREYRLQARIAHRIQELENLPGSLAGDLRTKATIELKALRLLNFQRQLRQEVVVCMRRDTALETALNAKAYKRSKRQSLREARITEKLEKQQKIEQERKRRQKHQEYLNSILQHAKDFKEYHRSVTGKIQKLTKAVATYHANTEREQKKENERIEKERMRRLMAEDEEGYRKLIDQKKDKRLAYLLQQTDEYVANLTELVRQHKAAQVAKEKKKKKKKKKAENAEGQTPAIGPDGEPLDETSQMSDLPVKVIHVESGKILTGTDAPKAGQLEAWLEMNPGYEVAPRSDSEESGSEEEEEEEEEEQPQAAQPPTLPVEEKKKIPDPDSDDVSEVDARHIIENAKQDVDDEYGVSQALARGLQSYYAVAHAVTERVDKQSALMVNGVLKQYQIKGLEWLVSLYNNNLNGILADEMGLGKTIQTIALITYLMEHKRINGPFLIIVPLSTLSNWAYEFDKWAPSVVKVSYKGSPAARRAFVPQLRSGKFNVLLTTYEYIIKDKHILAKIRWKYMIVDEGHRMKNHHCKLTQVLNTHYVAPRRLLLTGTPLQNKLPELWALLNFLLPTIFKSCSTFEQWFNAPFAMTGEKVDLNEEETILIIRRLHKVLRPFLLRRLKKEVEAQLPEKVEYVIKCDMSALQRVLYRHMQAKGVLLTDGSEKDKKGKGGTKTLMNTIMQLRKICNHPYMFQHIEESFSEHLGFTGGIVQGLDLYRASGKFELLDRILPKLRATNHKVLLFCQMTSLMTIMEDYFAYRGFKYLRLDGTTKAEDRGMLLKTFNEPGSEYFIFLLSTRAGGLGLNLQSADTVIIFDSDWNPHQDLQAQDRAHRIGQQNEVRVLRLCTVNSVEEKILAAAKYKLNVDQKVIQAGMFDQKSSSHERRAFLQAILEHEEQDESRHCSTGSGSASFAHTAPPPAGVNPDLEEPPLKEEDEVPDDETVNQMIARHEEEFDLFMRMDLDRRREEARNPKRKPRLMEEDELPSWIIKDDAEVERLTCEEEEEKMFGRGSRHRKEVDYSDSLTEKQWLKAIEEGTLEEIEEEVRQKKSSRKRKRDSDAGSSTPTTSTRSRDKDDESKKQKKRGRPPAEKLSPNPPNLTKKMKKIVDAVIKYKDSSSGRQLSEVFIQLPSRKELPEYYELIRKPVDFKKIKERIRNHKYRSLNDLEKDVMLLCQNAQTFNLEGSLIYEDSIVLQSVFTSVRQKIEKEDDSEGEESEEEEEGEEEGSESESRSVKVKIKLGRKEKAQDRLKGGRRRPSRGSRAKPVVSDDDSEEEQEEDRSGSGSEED
In words: SMARCA4 HiBiT degradation assay in HeLa cells. Format: cell-based. As to conditions: 18 hours incubation; for DC50: read-out: DC50 (SM4-HeLa), SMARCA4 degradation potency; for Dmax: read-out: Dmax % (SM4-HeLa), maximum SMARCA4 degradation within the concentrations tested. The method, then:
as §1, §2, §3, §4, §5, §6
A general note: With HiBiT, luminescence reflects the tagged protein that the partner subunit can reach.

T1 sequence (P51531 whole entry): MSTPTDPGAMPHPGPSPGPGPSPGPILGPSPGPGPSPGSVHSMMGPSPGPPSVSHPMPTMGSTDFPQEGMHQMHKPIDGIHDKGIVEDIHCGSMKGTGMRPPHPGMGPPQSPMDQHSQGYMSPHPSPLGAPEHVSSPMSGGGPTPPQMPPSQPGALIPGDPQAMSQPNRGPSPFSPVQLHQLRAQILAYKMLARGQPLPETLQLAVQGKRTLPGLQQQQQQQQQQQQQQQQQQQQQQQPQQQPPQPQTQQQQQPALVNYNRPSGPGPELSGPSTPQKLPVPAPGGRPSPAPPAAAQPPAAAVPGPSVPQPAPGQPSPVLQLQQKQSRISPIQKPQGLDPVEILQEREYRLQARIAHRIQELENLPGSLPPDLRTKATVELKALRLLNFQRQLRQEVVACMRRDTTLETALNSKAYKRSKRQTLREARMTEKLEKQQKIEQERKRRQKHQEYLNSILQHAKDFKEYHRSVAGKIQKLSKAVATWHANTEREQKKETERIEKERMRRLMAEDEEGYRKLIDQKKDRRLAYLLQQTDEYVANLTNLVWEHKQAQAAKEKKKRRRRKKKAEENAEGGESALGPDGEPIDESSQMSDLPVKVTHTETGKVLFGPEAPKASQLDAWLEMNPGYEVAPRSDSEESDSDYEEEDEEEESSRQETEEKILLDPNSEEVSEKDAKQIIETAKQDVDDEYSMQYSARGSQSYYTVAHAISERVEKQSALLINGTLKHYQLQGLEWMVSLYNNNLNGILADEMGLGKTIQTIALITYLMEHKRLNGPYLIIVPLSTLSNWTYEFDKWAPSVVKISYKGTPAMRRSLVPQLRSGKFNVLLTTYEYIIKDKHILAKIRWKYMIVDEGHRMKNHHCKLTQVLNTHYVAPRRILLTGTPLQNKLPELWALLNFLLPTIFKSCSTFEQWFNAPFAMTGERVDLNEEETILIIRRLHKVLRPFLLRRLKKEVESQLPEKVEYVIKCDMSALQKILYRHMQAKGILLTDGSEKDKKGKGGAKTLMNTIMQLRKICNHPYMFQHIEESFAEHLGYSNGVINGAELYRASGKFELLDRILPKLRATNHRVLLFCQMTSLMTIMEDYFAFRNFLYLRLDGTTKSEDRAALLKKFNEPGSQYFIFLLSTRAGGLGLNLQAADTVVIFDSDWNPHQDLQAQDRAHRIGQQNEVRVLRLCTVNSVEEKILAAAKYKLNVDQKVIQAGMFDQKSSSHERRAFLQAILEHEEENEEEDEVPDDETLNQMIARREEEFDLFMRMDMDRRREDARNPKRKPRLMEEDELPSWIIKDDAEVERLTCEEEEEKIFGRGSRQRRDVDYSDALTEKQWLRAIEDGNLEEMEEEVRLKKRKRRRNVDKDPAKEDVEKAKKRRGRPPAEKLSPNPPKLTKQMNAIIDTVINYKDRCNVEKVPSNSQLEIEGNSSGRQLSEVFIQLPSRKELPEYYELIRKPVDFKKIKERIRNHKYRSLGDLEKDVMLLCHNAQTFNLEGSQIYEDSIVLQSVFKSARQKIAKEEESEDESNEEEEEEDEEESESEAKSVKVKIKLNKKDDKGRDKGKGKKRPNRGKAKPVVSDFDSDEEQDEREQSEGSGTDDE

In the case of `Cc1ncsc1-c1ccc([C@H](C)NC(=O)[C@@H]2C[C@@H](O)CN2C(=O)[C@@H](c2cc(OCCN3CCC(N4CCC5(CC4)CNc4nnc(-c6ccccc6O)cc4N5)C3)no2)C(C)C)cc1` (stereo partly drawn) [Example 6, (2S,4R)-4-hydroxy-1-((2R)-2-(3-(2-(3-(3′-(2-hydroxyphenyl)-7′,8′-dihydro-5′H-spiro [piperidine-4,6′-pyrazino[2,3-c]pyridazin]-1-yl)pyrrolidin-1-yl)ethoxy)isoxazol-5-yl)-3-methylbutanoyl)-N-((S)-1-(4-(4-methylthiazol-5-yl)phenyl)ethyl) pyrrolidine-2-carboxamide], the DC50 in assay [1] lay in the range of 1000 to 10000 nM; in assay [2] it was 100 to 1000 nM. The Dmax in assay [1] is at most 50%; in assay [2], above 75%.

With `Cc1ncsc1-c1ccc([C@H](C)NC(=O)[C@@H]2C[C@@H](O)CN2C(=O)[C@@H](c2cc(OCCN3CCC(N4CCC5(CC4)CNc4nnc(-c6ccccc6O)cc45)C3)no2)C(C)C)cc1` (stereo partly drawn) [Example 1, (2S,4R)-4-hydroxy-1-((2R)-2-(3-(2-(3-(3′-(2-hydroxyphenyl)-6′,7′-dihydrospiro[piperidine-4,5′-pyrrolo[2,3-c]pyridazin]-1-yl)pyrrolidin-1-yl)ethoxy)isoxazol-5-yl)-3-methylbutanoyl)-N-((S)-1-(4-(4-methylthiazol-5-yl)phenyl)ethyl) pyrrolidine-2-carboxamide], the results for the DC50 in assay [1] and in assay [2] were below 100 nM and at least 10000 nM, respectively. The Dmax in assay [1] was above 75%; in assay [2], at most 50%.

In the case of `Cc1ncsc1-c1ccc([C@H](C)NC(=O)[C@@H]2C[C@@H](O)CN2C(=O)[C@@H](c2cc(OCCN3CCC(N4CCCC5(CNc6nnc(-c7ccccc7O)cc6N5)C4)C3)no2)C(C)C)cc1` (stereo partly drawn) [Example 4, (2S,4R)-4-hydroxy-1-((2R)-2-(3-(2-(3-(3′-(2-hydroxyphenyl)-7′,8′-dihydro-5′H-spiro[piperidine-3,6′-pyrazino[2,3-c]pyridazin]-1-yl)pyrrolidin-1-yl)ethoxy)isoxazol-5-yl)-3-methylbutanoyl)-N-((S)-1-(4-(4-methylthiazol-5-yl)phenyl)ethyl) pyrrolidine-2-carboxamide], in assay [1], the DC50 was below 100 nM and the Dmax fell in the range of 50 to 75%. Also, in assay [2], the DC50 was below 100 nM and the Dmax was above 75%.

On to `Cc1ncsc1-c1ccc([C@H](C)NC(=O)[C@@H]2C[C@@H](O)CN2C(=O)[C@@H](c2cc(OCCN3CCC(N4CCC5(CC4)CNc4nnc(-c6ccccc6O)cc4N5)CC3)no2)C(C)C)cc1` [Example 2, (2S,4R)-4-hydroxy-1-((R)-2-(3-(2-(4-(3′-(2-hydroxyphenyl)-7′,8′-dihydro-5′H-spiro[piperidine-4,6′-pyrazino[2,3-c]pyridazin]-1-yl)piperidin-1-yl)ethoxy)isoxazol-5-yl)-3-methylbutanoyl)-N-((S)-1-(4-(4-methylthiazol-5-yl)phenyl)ethyl) pyrrolidine-2-carboxamide], for which, in assay [1], the half-maximal degradation concentration (DC50) was below 100 nM and the Dmax is 50 to 75%. In assay [2], the DC50 is below 100 nM and the Dmax is above 75%.

In the case of `Cc1ncsc1-c1ccc([C@H](C)NC(=O)[C@@H]2C[C@@H](O)CN2C(=O)[C@@H](c2cc(OCCN3CCC(CN4CCC5(CC4)CNc4nnc(-c6ccccc6O)cc45)CC3)no2)C(C)C)cc1` [Example 3, (2S,4R)-4-hydroxy-1-((R)-2-(3-(2-(4-((3′-(2-hydroxyphenyl)-6′,7′-dihydrospiro[piperidine-4,5′-pyrrolo[2,3-c]pyridazin]-1-yl)methyl)piperidin-1-yl)ethoxy)isoxazol-5-yl)-3-methylbutanoyl)-N-((S)-1-(4-(4-methylthiazol-5-yl)phenyl)ethyl) pyrrolidine-2-carboxamide], in assay [1], the DC50 is below 100 nM and the Dmax fell in the range of 50 to 75%. Moreover, in assay [2], the DC50 was at least 10000 nM and the Dmax is at most 50%.

As to `Cc1ncsc1-c1ccc([C@H](C)NC(=O)[C@@H]2C[C@@H](O)CN2C(=O)[C@@H](c2cc(OCCN3CCC(N4CCCC5(CNc6nnc(-c7ccccc7O)cc6N5)C4)CC3)no2)C(C)C)cc1` (stereo partly drawn) [Example 5, (2S,4R)-4-hydroxy-1-((2R)-2-(3-(2-(4-(3′-(2-hydroxyphenyl)-7′,8′-dihydro-5′H-spiro[piperidine-3,6′-pyrazino[2,3-c]pyridazin]-1-yl)piperidin-1-yl)ethoxy)isoxazol-5-yl)-3-methylbutanoyl)-N-((S)-1-(4-(4-methylthiazol-5-yl)phenyl)ethyl) pyrrolidine-2-carboxamide], the DC50 in assay [1] and in assay [2] was below 100 nM throughout. The Dmax is 50 to 75% in assay [1] and above 75% in assay [2].

`Cc1ncsc1-c1ccc([C@H](C)NC(=O)[C@@H]2C[C@@H](O)CN2C(=O)[C@@H](c2cc(OCCN3CCC(CN4CCC5(CC4)CNc4nnc(-c6ccccc6O)cc4N5)CC3)no2)C(C)C)cc1` [Example 8, (2S,4R)-4-hydroxy-1-((R)-2-(3-(2-(4-((3′-(2-hydroxyphenyl)-7′,8′-dihydro-5′H-spiro [piperidine-4,6′-pyrazino[2,3-c]pyridazin]-1-yl)methyl)piperidin-1-yl)ethoxy)isoxazol-5-yl)-3-methylbutanoyl)-N-((S)-1-(4-(4-methylthiazol-5-yl)phenyl)ethyl) pyrrolidine-2-carboxamide]: in assay [1], the DC50 is below 100 nM and the Dmax is above 75%. In assay [2], the DC50 was below 100 nM and the Dmax was above 75%.

For the molecule `Cc1ncsc1-c1ccc([C@H](C)NC(=O)[C@@H]2C[C@@H](O)CN2C(=O)[C@@H](c2cc(OCCN3CCC(CN4CCCC5(CNc6nnc(-c7ccccc7O)cc6N5)C4)CC3)no2)C(C)C)cc1` (stereo partly drawn) [Example 7, (2S,4R)-4-hydroxy-1-((2R)-2-(3-(2-(4-((3′-(2-hydroxyphenyl)-7′,8′-dihydro-5′H-spiro[piperidine-3,6′-pyrazino[2,3-c]pyridazin]-1-yl)methyl)piperidin-1-yl)ethoxy)isoxazol-5-yl)-3-methylbutanoyl)-N-((S)-1-(4-(4-methylthiazol-5-yl)phenyl)ethyl) pyrrolidine-2-carboxamide], in assay [1], the DC50 is below 100 nM and the Dmax is above 75%. For the same molecule, in assay [2], the DC50 is below 100 nM and the Dmax is above 75%.
